Laboratory results from article PMC4712357 (Molecular informatics, 2015).

Assay: Vesicle rupture assay
Assay type: biochemical
Conditions: POPC LUVs, relative to Triton X-100 (=100%)

Sequence: EWGQGLTSFWHL [compound 2]
- rupturing of POPC vesicles: 50–75%
